According to article PMC10794144, “A novel antibiotic class targeting the lipopolysaccharide transporter” (Nature, 2024):
Converted amounts (≈) assume the structure as drawn.

Test system: A. baumannii
Assay: microbe, parasite or virus in culture
Procedure, shortened: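 MIC was taken as the lowest concentration without visible growth, or past which OD600 no longer fell. Testing followed CLSI M07 and M100 broth microdilution, using 0.5 McFarland-derived inocula in CAMHB (LB for A. baylyi isolates).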

CN1C(=O)[C@H](CCCCN)NC(=O)[C@H](CCCN)NCc2cccnc2Sc2c(Cl)ccc(Cl)c2CNC(=O)[C@@H]1Cc1c[nH]c2ccccc12 [RO7075573]
MIC 100% (ROB08702, Study LGC286210): >64 µg/mL | MIC 80% (ROB08702, Study LGC293598): 0.12 µg/mL (≈ 0.162 µM) | MIC 100% (ROB08702, Study LGC293598): >64 µg/mL | MIC 80% (ROB08702, Study LGC294355): 0.12 µg/mL (≈ 0.162 µM) | MIC 100% (ROB08702, Study LGC294355): >64 µg/mL | MIC 80% (ROB08702, Study LGC295147): 0.12 µg/mL (≈ 0.162 µM) | MIC 100% (ROB08702, Study LGC295147): 64 µg/mL (≈ 86.5 µM) | MIC 80% (ROB08702, Study LGC296813): 0.12 µg/mL (≈ 0.162 µM) | MIC 100% (ROB08702, Study LGC296813): 64 µg/mL (≈ 86.5 µM) | MIC 80% (ROB08702, Study LGC299544): 0.12 µg/mL (≈ 0.162 µM) | MIC 100% (ROB08702, Study LGC299544): 64 µg/mL (≈ 86.5 µM) | MIC 80% (ROB08702, Study LGC301026): 0.12 µg/mL (≈ 0.162 µM) | MIC 100% (ROB08702, Study LGC301026): 64 µg/mL (≈ 86.5 µM) | MIC 80% (ROB08702, Study LGC308175): 0.12 µg/mL (≈ 0.162 µM) | MIC 100% (ROB08702, Study LGC308175): 64 µg/mL (≈ 86.5 µM) | MIC 80% (ROB08702, Study ROC010): 0.25 µg/mL (≈ 0.338 µM) | MIC 100% (ROB08702, Study ROC010): 32 µg/mL (≈ 43.3 µM) | MIC 80% (ROB08702, Study ROC012): 0.12 µg/mL (≈ 0.162 µM) | MIC 100% (ROB08702, Study ROC012): 64 µg/mL (≈ 86.5 µM) | MIC 80% (ROB08703, Study LGC281440): 0.25 µg/mL (≈ 0.338 µM) | MIC 100% (ROB08703, Study LGC281440): 16 µg/mL (≈ 21.6 µM) | MIC 80% (ROB08703, Study LGC282160): 0.25 µg/mL (≈ 0.338 µM) | MIC 100% (ROB08703, Study LGC282160): 64 µg/mL (≈ 86.5 µM) | MIC 80% (ROB08703, Study LGC284879): 0.5 µg/mL (≈ 0.676 µM) | MIC 100% (ROB08703, Study LGC284879): >64 µg/mL | MIC 80% (ROB08703, Study LGC285582): 0.25 µg/mL (≈ 0.338 µM) | MIC 100% (ROB08703, Study LGC285582): 64 µg/mL (≈ 86.5 µM) | MIC 80% (ROB08703, Study LGC286210): 0.25 µg/mL (≈ 0.338 µM) | MIC 100% (ROB08703, Study LGC286210): 64 µg/mL (≈ 86.5 µM) | MIC 80% (ROB08703, Study LGC293598): 0.12 µg/mL (≈ 0.162 µM) | MIC 100% (ROB08703, Study LGC293598): >64 µg/mL | MIC 80% (ROB08703, Study LGC294355): >64 µg/mL | MIC 100% (ROB08703, Study LGC294355): >64 µg/mL | MIC 80% (ROB08703, Study LGC295147): 0.25 µg/mL (≈ 0.338 µM) | MIC 100% (ROB08703, Study LGC295147): 64 µg/mL (≈ 86.5 µM) | MIC 80% (ROB08703, Study LGC296813): 0.5 µg/mL (≈ 0.676 µM) | MIC 100% (ROB08703, Study LGC296813): 64 µg/mL (≈ 86.5 µM) | MIC 80% (ROB08703, Study LGC299544): 0.5 µg/mL (≈ 0.676 µM) | MIC 100% (ROB08703, Study LGC299544): 64 µg/mL (≈ 86.5 µM) | MIC 80% (ROB08703, Study LGC301026): 0.25 µg/mL (≈ 0.338 µM) | MIC 100% (ROB08703, Study LGC301026): 64 µg/mL (≈ 86.5 µM) | MIC 80% (ROB08703, Study LGC308175): 0.25 µg/mL (≈ 0.338 µM) | MIC 100% (ROB08703, Study LGC308175): 64 µg/mL (≈ 86.5 µM) | MIC 80% (ROB08703, Study ROC010): 0.5 µg/mL (≈ 0.676 µM) | MIC 100% (ROB08703, Study ROC010): 0.5 µg/mL (≈ 0.676 µM) | MIC 80% (ROB08703, Study ROC012): 0.25 µg/mL (≈ 0.338 µM) | MIC 100% (ROB08703, Study ROC012): 64 µg/mL (≈ 86.5 µM) | MIC 80% (ROB08704, Study LGC281440): 0.5 µg/mL (≈ 0.676 µM) | MIC 100% (ROB08704, Study LGC281440): 16 µg/mL (≈ 21.6 µM) | MIC 80% (ROB08704, Study LGC282160): 0.25 µg/mL (≈ 0.338 µM) | MIC 100% (ROB08704, Study LGC282160): 64 µg/mL (≈ 86.5 µM) | MIC 80% (ROB08704, Study LGC284879): 0.5 µg/mL (≈ 0.676 µM) | MIC 100% (ROB08704, Study LGC284879): >64 µg/mL | MIC 80% (ROB08704, Study LGC285582): 0.25 µg/mL (≈ 0.338 µM) | MIC 100% (ROB08704, Study LGC285582): 64 µg/mL (≈ 86.5 µM) | MIC 80% (ROB08704, Study LGC286210): 0.5 µg/mL (≈ 0.676 µM) | MIC 100% (ROB08704, Study LGC286210): 32 µg/mL (≈ 43.3 µM) | MIC 80% (ROB08704, Study LGC293598): 0.5 µg/mL (≈ 0.676 µM) | MIC 100% (ROB08704, Study LGC293598): >64 µg/mL | MIC 80% (ROB08704, Study LGC294355): 0.5 µg/mL (≈ 0.676 µM) | MIC 100% (ROB08704, Study LGC294355): >64 µg/mL | MIC 80% (ROB08704, Study LGC295147): 0.5 µg/mL (≈ 0.676 µM) | MIC 100% (ROB08704, Study LGC295147): 64 µg/mL (≈ 86.5 µM) | MIC 80% (ROB08704, Study LGC296813): 0.5 µg/mL (≈ 0.676 µM) | MIC 100% (ROB08704, Study LGC296813): 32 µg/mL (≈ 43.3 µM) | MIC 80% (ROB08704, Study LGC299544): 0.5 µg/mL (≈ 0.676 µM) | MIC 100% (ROB08704, Study LGC299544): 64 µg/mL (≈ 86.5 µM) | MIC 80% (ROB08704, Study LGC301026): 0.5 µg/mL (≈ 0.676 µM) | MIC 100% (ROB08704, Study LGC301026): 64 µg/mL (≈ 86.5 µM) | MIC 80% (ROB08704, Study LGC308175): 0.25 µg/mL (≈ 0.338 µM) | MIC 100% (ROB08704, Study LGC308175): 32 µg/mL (≈ 43.3 µM) | MIC 80% (ROB08704, Study ROC010): 0.5 µg/mL (≈ 0.676 µM) | MIC 100% (ROB08704, Study ROC010): 1 µg/mL (≈ 1.35 µM) | MIC 80% (ROB08704, Study ROC012): 0.25 µg/mL (≈ 0.338 µM) | MIC 100% (ROB08704, Study ROC012): 32 µg/mL (≈ 43.3 µM) | MIC 80% (ROB08705, Study LGC281440): ≤0.06 µg/mL | MIC 100% (ROB08705, Study LGC281440): ≤0.06 µg/mL | MIC 80% (ROB08705, Study LGC282160): 0.12 µg/mL (≈ 0.162 µM) | MIC 100% (ROB08705, Study LGC282160): 32 µg/mL (≈ 43.3 µM) | MIC 80% (ROB08705, Study LGC284879): ≤0.06 µg/mL | MIC 100% (ROB08705, Study LGC284879): 0.12 µg/mL (≈ 0.162 µM) | MIC 80% (ROB08705, Study LGC285582): ≤0.06 µg/mL | MIC 100% (ROB08705, Study LGC285582): ≤0.06 µg/mL | MIC 80% (ROB08705, Study LGC286210): ≤0.06 µg/mL | MIC 100% (ROB08705, Study LGC286210): ≤0.06 µg/mL | MIC 80% (ROB08705, Study LGC293598): ≤0.06 µg/mL
